Results reported in patent US20230203026A1, “PESTICIDAL COMPOSITIONS AND METHODS” (CORTEVA AGRISCIENCE LLC, priority 2017, published 2023).

Key:
[1] = test system: Cabbage Looper (Trichloplusia ni, TRIPNI) ("CL"); assay: Insecticidal test for cabbage looper, 128-well diet tray assay; assay type: in vivo; conditions: Trichoplusia ni, 168 h; 50 μg/cm^2 of test compound on artificial diet; second instar CL larvae; 25° C.; five to seven days; average of eight wells; read-out: CL % Control (or Mortality) rating
Procedure: Insecticidal Test for Cabbage Looper (Trichloplusia ni, TRIPNI) (“CL”)
(§1) Bioassays on cabbage looper (CL; Trichloplusia ni: Lepidoptera) are conducted using a 128-well diet tray assay. One to five second instar CL larvae are placed in each well (3 mL) of the diet tray that had been previously filled with 1 mL of artificial diet to which 50 μg/cm^2 of the test compound (dissolved in 50 μL of 90:10 acetone-water mixture) had been applied (to each of eight wells) and then allowed to dry. Trays are covered with a clear self-adhesive cover, vented to allow gas exchange, and held at 25° C., 14:10 light-dark for five to seven days. Percent mortality is recorded for the larvae in each well; activity in the eight wells is then averaged.

[2] = test system: beet armyworm (Spodoptera exigua, LAPHEG) ("BAW"); assay: Insecticidal test for beet armyworm, 128-well diet tray assay; assay type: in vivo; conditions: 168 h, 50 μg/cm^2 of test compound on artificial diet, second instar BAW larvae, 25° C., five to seven days, average of eight wells, read-out: BAW % Control (or Mortality) rating
Procedure: Insecticidal test for beet armyworm (Spodoptera exigua, LAPHEG) (“BAW”)
as §1, with “beet armyworm (BAW; Spodoptera exigua:” for “cabbage looper (CL; Trichloplusia ni:”, “BAW” for “CL”

SMILES | mortality at 50 µg/cm2 [1] [%] | mortality at 50 µg/cm2 [2] [%]
CC(C)c1ccc(Cl)cc1N1C(=O)CS/C1=N\C(=O)NNC(C)c1ccc(-c2ncn(-c3ccc(OC(F)(F)F)cc3)n2)cc1 (stereo not shown) [A8, (Z)—N-(3-(5-Chloro-2-isopropylphenyl)-4-oxothiazolidin-2-ylidene)-2-(1-(4-(1-(4-(trifluoromethoxy)phenyl)-1H-1,2,4-triazol-3-yl)phenyl)ethyl)hydrazine-1-carboxamide] | 50 to 100 | 50 to 100
Cc1ccc(C(C)C)c(N2C(=O)CS/C2=N\C(=O)NOC(C)c2ccc(-c3ncn(-c4ccc(OC(F)(F)F)cc4)n3)cc2)c1 (stereo not shown) [A17, (Z)-1-(3-(2-Isopropyl-5-methylphenyl)-4-oxothiazolidin-2-ylidene)-3-(1-(4-(1-(4-(trifluoromethoxy)phenyl)-1H-1,2,4-triazol-3-yl)phenyl)ethoxy)urea] | 50 to 100 | 50 to 100
Cc1ccc(C(F)(F)F)c(N2C(=O)CS/C2=N\C(=O)NOC(C)c2ccc(-c3ncn(-c4ccc(OC(F)(F)F)cc4)n3)cc2)c1 (stereo not shown) [A13, (Z)-1-(3-(5-Methyl-2-(trifluoromethyl)phenyl)-4-oxothiazolidin-2-ylidene)-3-(1-(4-(1-(4-(trifluoromethoxy)phenyl)-1H-1,2,4-triazol-3-yl)phenyl)ethoxy)urea] | 50 to 100 | 50 to 100
CC(C)c1ccccc1N1C(=O)CS/C1=N\C(=O)NOC(C)c1ccc(-c2ncn(-c3ccc(OC(F)(F)F)cc3)n2)cc1 (stereo not shown) [A18, (Z)-1-(3-(2-Isopropylphenyl)-4-oxothiazolidin-2-ylidene)-3-(1-(4-(1-(4-(trifluoromethoxy)phenyl)-1H-1,2,4-triazol-3-yl)phenyl)ethoxy)urea] | 50 to 100 | 50 to 100
Cc1ccc(OCC(F)(F)F)c(N2C(=O)CS/C2=N\C(=O)NOCc2ccc(-c3ncn(-c4ccc(OC(F)(F)F)cc4)n3)cc2)c1 [A30, (Z)-1-(3-(5-Methyl-2-(2,2,2-trifluoroethoxy)phenyl)-4-oxothiazolidin-2-ylidene)-3-((4-(1-(4-(trifluoromethoxy)phenyl)-1H-1,2,4-triazol-3-yl)benzyl)oxy)urea] | 50 to 100 | 50 to 100
Cc1ccc(OCC(F)(F)F)c(N2C(=O)CS/C2=N\C(=O)NOC(C)c2ccc(-c3ncn(-c4ccc(OC(F)(F)F)cc4)n3)cc2)c1 (stereo not shown) [A19, (Z)-1-(3-(5-Methyl-2-(2,2,2-trifluoroethoxy)phenyl)-4-oxothiazolidin-2-ylidene)-3-(1-(4-(1-(4-(trifluoromethoxy)phenyl)-1H-1,2,4-triazol-3-yl)phenyl)ethoxy)urea] | 50 to 100 | 50 to 100
Cc1ccc(C(C)C)c(N2C(=O)CS/C2=N\C(=O)NN(C)Cc2ccc(-c3ncn(-c4ccc(OC(F)(F)F)cc4)n3)cc2)c1 [A4, (Z)—N-(3-(2-isopropyl-5-methylphenyl)-4-oxothiazolidin-2-ylidene)-2-methyl-2-(4-(1-(4-(trifluoromethoxy)phenyl)-1H-1,2,4-triazol-3-yl)benzyl)hydrazine-1-carboxamide] | 50 to 100 | 50 to 100
CCCc1ccc(OC)cc1N1C(=O)CS/C1=N\C(=O)NOC(C)c1ccc(-c2ncn(-c3ccc(OC(F)(F)F)cc3)n2)cc1 (stereo not shown) [A15, (Z)-1-(3-(5-Methoxy-2-propylphenyl)-4-oxothiazolidin-2-ylidene)-3-(1-(4-(1-(4-(trifluoromethoxy)phenyl)-1H-1,2,4-triazol-3-yl)phenyl)ethoxy)urea] | 50 to 100 | 50 to 100
Cc1ccc(C(C)C)c(N2C(=O)CS/C2=N\C(=O)NNC(C)c2ccc(-c3ncn(-c4ccc(OC(F)(F)F)cc4)n3)cc2)c1 (stereo not shown) [A9, (Z)—N-(3-(2-Isopropyl-5-methylphenyl)-4-oxothiazolidin-2-ylidene)-2-(1-(4-(1-(4-(trifluoromethoxy)phenyl)-1H-1,2,4-triazol-3-yl)phenyl)ethyl)hydrazine-1-carboxamide] | 50 to 100 | 50 to 100
Cc1ccc(C(C)C)c(N2C(=O)CS/C2=N\C(=O)ON(Cc2ccc(-c3ncn(-c4ccc(OC(F)(F)F)cc4)n3)cc2)C(=O)OC(C)(C)C)c1 [A35, tert-Butyl (Z)-(((3-(2-isopropyl-5-methylphenyl)-4-oxothiazolidin-2-ylidene)carbamoyl)oxy)(4-(1-(4-(trifluoromethoxy)phenyl)-1H-1,2,4-triazol-3-yl)benzyl)carbamate] | 0 | 0
CCCc1ccc(C)cc1N1C(=O)CS/C1=N\C(=O)NOC(C)c1ccc(-c2ncn(-c3ccc(OC(F)(F)F)cc3)n2)cc1 (stereo not shown) [A12, (Z)-1-(3-(5-Methyl-2-propylphenyl)-4-oxothiazolidin-2-ylidene)-3-(1-(4-(1-(4-(trifluoromethoxy)phenyl)-1H-1,2,4-triazol-3-yl)phenyl)ethoxy)urea] | 50 to 100 | 50 to 100
O=C(/N=C1\SCC(=O)N1c1cc(Cl)ccc1OCC(F)(F)F)NOCc1ccc(-c2ncn(-c3ccc(OC(F)(F)F)cc3)n2)cc1 [A31, (Z)-1-(3-(5-Chloro-2-(2,2,2-trifluoroethoxy)phenyl)-4-oxothiazolidin-2-ylidene)-3-((4-(1-(4-(trifluoromethoxy)phenyl)-1H-1,2,4-triazol-3-yl)benzyl)oxy)urea] | 50 to 100 | 50 to 100
Cc1ccc(C(C)C)c(N2C(=O)CS/C2=N\C(=O)ONCc2ccc(-c3ncn(-c4ccc(OC(F)(F)F)cc4)n3)cc2)c1 [A40, (Z)-3-(2-isopropyl-5-methylphenyl)-2-(((((4-(1-(4-(trifluoromethoxy)phenyl)-1H-1,2,4-triazol-3-yl)benzyl)amino)oxy)carbonyl)imino)thiazolidin-4-one] | 50 to 100 | 50 to 100
Cc1ccc(OCC(F)(F)F)c(N2C(=O)CS/C2=N\C(=O)NN(C)C(C)c2ccc(-c3ncn(-c4ccc(OC(F)(F)F)cc4)n3)cc2)c1 (stereo not shown) [A38, (Z)-2-Methyl-N-(3-(5-methyl-2-(2,2,2-trifluoroethoxy)phenyl)-4-oxothiazolidinylidene)-2-(1-(4-(1-(4-(trifluoromethoxy)phenyl)-1H-1,2,4-triazolyl)phenyl)ethyl)hydrazine-1-carboxamide] | 50 to 100 | 50 to 100
COc1ccc(C(C)C)c(N2C(=O)CS/C2=N\C(=O)NOC(C)c2ccc(-c3ncn(-c4ccc(OC(F)(F)F)cc4)n3)cc2)c1 (stereo not shown) [A14, (Z)-1-(3-(2-Isopropyl-5-methoxyphenyl)-4-oxothiazolidin-2-ylidene)-3-(1-(4-(1-(4-(trifluoromethoxy)phenyl)-1H-1,2,4-triazol-3-yl)phenyl)ethoxy)urea] | 50 to 100 | 50 to 100
COCc1ccc(C)cc1N1C(=O)CS/C1=N\C(=O)NOC(C)c1ccc(-c2ncn(-c3ccc(OC(F)(F)F)cc3)n2)cc1 (stereo not shown) [A16, (Z)-1-(3-(2-(Methoxymethyl)-5-methylphenyl)-4-oxothiazolidin-2-ylidene)-3-(1-(4-(1-(4-(trifluoromethoxy)phenyl)-1H-1,2,4-triazol-3-yl)phenyl)ethoxy)urea] | 50 to 100 | 50 to 100
COCc1ccc(C)cc1N1C(=O)CS/C1=N\C(=O)NOCc1ccc(-c2ncn(-c3ccc(OC(F)(F)F)cc3)n2)cc1 [A27, (Z)-1-(3-(2-(Methoxymethyl)-5-methylphenyl)-4-oxothiazolidin-2-ylidene)-3-((4-(1-(4-(trifluoromethoxy)phenyl)-1H-1,2,4-triazol-3-yl)benzyl)oxy)urea] | 50 to 100 | 50 to 100
CC(C)c1ccc(Cl)cc1N1C(=O)CS/C1=N\C(=O)NN(C)C(C)c1ccc(-c2ncn(-c3ccc(OC(F)(F)F)cc3)n2)cc1 (stereo not shown) [A36, (Z)—N-(3-(5-Chloro-2-isopropylphenyl)-4-oxothiazolidin-2-ylidene)-2-methyl-2-(1-(4-(1-(4-(trifluoromethoxy)phenyl)-1H-1,2,4-triazol-3-yl)phenyl)ethyl)hydrazine-1-carboxamide] | 50 to 100 | 50 to 100
COc1ccc(C(C)C)c(N2C(=O)CS/C2=N\C(=O)NOCc2ccc(-c3ncn(-c4ccc(OC(F)(F)F)cc4)n3)cc2)c1 [A26, (Z)-1-(3-(2-Isopropyl-5-methoxyphenyl)-4-oxothiazolidin-2-ylidene)-3-((4-(1-(4-(trifluoromethoxy)phenyl)-1H-1,2,4-triazol-3-yl)benzyl)oxy)urea] | 50 to 100 | 50 to 100
Cc1ccc(C(C)C)c(N2C(=O)CS/C2=N\C(=O)NN(C)C(C)c2ccc(-c3ncn(-c4ccc(OC(F)(F)F)cc4)n3)cc2)c1 (stereo not shown) [A3, (Z)—N-(3-(2-isopropyl-5-methylphenyl)-4-oxothiazolidin-2-ylidene)-2-methyl-2-(1-(4-(1-(4-(trifluoromethoxy)phenyl)-1H-1,2,4-triazol-3-yl)phenyl)ethyl)hydrazine-1-carboxamide] | 50 to 100 | 50 to 100
